Assay results: US8889729B2, “Compositions for treating amyloid associated diseases” (Tel Aviv University Future Technology Development L.P., priority 2004, dated 2014)
pIC50: −log10 of the molar value.

Columns and labels:
[1] = target: T1, Aβ 1-42 (Homo sapiens, UniProt P05067); assay: Thioflavin T fluorescence assay of Aβ 1-42 fibrillization (Example 2); assay type: biochemical; conditions: for inhibition of β-amyloid polypeptide fibril formation: 50 μM compound, 5 μM Aβ 1-42, 24 hours at 37° C.; for concentration dependence of inhibition of fibril formation: Aβ1-42, fixed incubation time of 24 hours; for pIC50: Aβ1-42 fibrillization, 24 hours, calculated by the curve equation, read-out: apparent IC50
T1 construct: Aβ 1-40 and Aβ 1-42, >98% pure) were purchased from Bachem; purchased Bachem (Bubendorf, Switzerland); host or cells: chemical synthesis
Procedure: (§1) Aβ solutions: Synthetic lyophilized β-amyloid polypeptides (Aβ 1-40 and Aβ 1-42, >98% pure) were purchased from Bachem (Bubendorf, Switzerland). A 100 μM Aβ stock solution was prepared by dissolving Aβ1-40 or Aβ1-42 in dimethylsulfoxide (DMSO) and sonicating the resulting solution during 1 minute to avoid pre-aggregation. Aβ solutions were prepared by immediate dilution with 10 mM phosphate-buffered saline (100 mM NaCl, 0.5 mM EDTA, pH 7.4) to a final concentration of 10 μM (containing 10% (v/v) DMSO).
(§2) Indole derivatives stock solutions were prepared by dissolving an indole derivative in DMSO, so as to achieve a concentration of 20 mM and then diluting the solution with 10 mM PBS buffer (100 mM NaCl, 0.5 mM EDTA, pH 7.4) to a final concentration of 100 μM (containing 0.5% (v/v) DMSO).
(§3) Thioflavin T fluorescence assay: Fibrillization of A[…] 1-42 polypeptide was monitored using a Thioflavin T (ThT) dye binding assay. A 10 μM Aβ solution (either Aβ1-40 or Aβ1-42) was prepared as described above and was immediately mixed with the indole derivative stock solutions (100 μM), so as to achieve a final concentration of 5 μM for Aβ and various concentrations of the indole derivative. For each measurement, ThT was added to a 0.1 ml sample, to give a final concentration of 0.3 μM ThT and 0.4 μM Aβ. The samples were incubated at 37° C. Fluorescence measurements, made after addition of the ThT solution to each sample at 37° C., were carried out using a Jobin Yvon FluoroMax-3 spectrometer (excitation 450 nm, 2.5 nm slit; emission 480 nm, 5 nm slit, integration time of 1 second). Background was subtracted from each sample. Each experiment was repeated in quadruplicate.
Inhibition of amyloid formation: The level of amyloid formation was detected using the above described Thioflavin T (ThT) dye binding assay. Fluorescence (relative intensity, measured in units of percent) of the ThT bound Aβ 1-42 remaining following 24 hours at 37° C., in the absence, and in the presence of 50 μM indole or indole derivative, was measured. Each measurement was recorded immediately after the fluorescence intensity reached a maximum value. The results obtained with representative indole derivatives, each representing a mean of four independent measurements along with an associated error bar representing a standard error, are graphically presented in FIG. 4.
Concentration Dependence of Indole Derivatives inhibition activity: To examine the inhibition efficiency of the indole derivatives, the concentration dependence of inhibition of fibril formation was studied. The fibrillization of Aβ1-42, with and without an indole derivative was measured using the ThT fluorescence assay described above at a fixed incubation time of 24 hours.

[2] = target: T2, Aβ1-40 (Homo sapiens, UniProt P05067); assay: AFM structural analysis of Aβ1-40 samples from kinetic studies; conditions: 50 μM compound, once control samples reached the polymerization phase
T2 construct: Synthetic lyophilized β-amyloid polypeptides (Aβ 1-40 and Aβ 1-42, >98% pure); purchased Bachem (Bubendorf, Switzerland); host or cells: chemical synthesis
Procedure: Atomic force microscopy (AFM): For each experiment, a 60 μl sample of was taken for AFM measurement at three different time points correlating to the amyloidogenic kinetic curve, as detailed hereinafter. The sample was centrifuged for 1.5 minutes at 13,000 rpm and 40 μl of the supernatant was removed. The remaining 20 μl droplet of the solution was re-suspended and deposited onto freshly cleaved mica for 1.5 minutes. The substrate was washed with 160 μl of double-distilled H2O to reduce background and to eliminate salts and buffer contaminants. The mica samples were then dried at room temperature. At least four regions of the mica surface were examined to ensure that similar structures existed throughout the sample. AFM images were obtained using a Veeco NanoScope IV MultiMode AFM (Digital Instruments, Santa Barbara, USA) in tapping mode. Measurements were performed at a resonance frequency of about 321.4 kHz.
Additional structural analyses were performed using AFM measurements, performed with Aβ1-40 samples taken from the kinetic studies once the control samples reached the different fibrillogenesis phase.

[3] = target: T2, Aβ1-40; assay: TEM ultrastructural analysis of Aβ1-40 samples from kinetic studies
Procedure: Transmission Electron microscopy (TEM): A 10 μl sample of the ThT fluorescence assay was placed on a 400 mesh copper grid covered by carbon-stabilized Formvar film (SPI Supplies, West Chester, Pa.). After 1.5 minutes, excess fluid was removed and the grids were negatively stained for 2 minutes with 10 μl of 2% uranyl acetate solution. Excess fluid was removed and the samples were viewed using a JEOL 1200EX electron microscope operating at 80 kV. Ultrastructural Analysis of amyloid fibril formation: The effect of the indole derivatives on the ultrastructural properties of the assembled Aβ was first evaluated by TEM measurements. Thus, TEM analysis was performed with samples of Aβ1-40 obtained from the kinetic studies described above after incubation for 14 days.

[4] = tested on: PC12 cells; assay: Aβ1-40 cytotoxicity on PC12 cells, MTT assay; assay type: cell-based; conditions: for elevation of viability rate of PC12 cells compared with control: 5 μM Aβ1-40, MTT after 24 hours; for inhibitory effect on Aβ1-40 cytotoxicity: both assays (T=0 and after 7 days incubation)
Procedure: Cell culture: PC12 pheochromocytoma cell line, a cultured benign tumor of the sympathetic nervous system, was routinely grown in Dulbecco's Modified Eagle Medium (DMEM) supplemented with 8% (v/v) fetal calf serum, 8% (v/v) horse serum, 100 U/ml penicillin, 100 U/ml streptomycin, and 2 mM L-glutamine (Biological industries, Israel). The cells were maintained at 37° C. in a humidified atmosphere containing 5% CO2. Cell cytotoxicity assay: PC-12 cells (3×10^5 cells/ml) were cultured in 96-well microplates (100 μl/well) and were incubated overnight at 37° C. The wells were then washed once with serum free-DMEM, so as to exclude the effect of the serum. To each well 100 μl of 5 μM Aβ1-40 (prepared from a stock solution of 0.5 mM in 10 mM NaOH) and an indole derivative at various concentrations were added. Each determination was made in quadruplicate. Following incubation for 24 hours at 37° C., cell viability was evaluated using the MTT assay (as described in Hansen et al. (1989) J. Immunol. Methods 119, 203-210). The effect of the indole derivatives on the formation of cytotoxic amyloid assemblies was determined by measuring the toxicity of the formed Aβ on pheochromocytoma cell line cultures (PC12) in the presence and absence of the indole derivatives. […] Cell viability was determined after 24 hours using the MTT assay. Cells incubated with only 5 μM Aβ1-40 served as the control.

[5] = target: T2, Aβ1-40; assay: Kinetics of Aβ1-40 fibrillogenesis inhibition, ThT fluorescence assay; assay type: biochemical; conditions: for effect on nucleation phase (lag phase) compared with control / effect on slope of growth curve (polymerization phase): 5 μM, 25 μM and 50 μM tested
Procedure: as §1, §2, §3
Kinetics Studies of Aβ1-40 Fibrillogenesis Inhibition: Aβ1-40, which has a slower fibrillogenesis rate [see, Jarrett et al. (1993) Biochemistry 32, 4693-4697] was used in these studies, in order to obtain better temporal resolution, assuming that a slower rate would allow more significant inhibition and a better understanding of the effect. 3-Hydroxyindole (denoted as 3HI), 4-hydroxyindole (denoted as 4HI) and indole-3-carbinol (denoted herein as I3C) were each added at concentrations of 5 μM, 25 μM, and 50 μM to a solution containing 5 μM of Aβ1-40 (prepared as described above) and the kinetics of Aβ1-40 fibrillogenesis inhibition was measured using the ThT fluorescence assay.

[6] = target: T3, Aβ 1-40 polypeptide (Homo sapiens, UniProt P05067); assay: Transmission electron microscopy of ThT assay samples (Example 1); conditions: 10 μM compound, sample at about 192 hours
T3 construct: Recombinant β-amyloid (Aβ 1-40, >98% pure) polypeptide; purchased rPeptide (Athens Ga., USA)
Procedure: Transmission Electron Microscopy (TEM) Measurements: 10 μl samples from the ThT fluorescence assay were placed on 400-mesh copper grids (SPI supplies, West Chester Pa.) covered by carbon stabilized Formvar film. After 1 minute, excess fluid was removed, and the grids were negatively stained with 2% uranyl acetate in water for another two minutes. Microstructural features of the samples were viewed using a JEOL 1200EX electron microscope operating at 80 kV.
In order to obtain insight into the mechanism of inhibiting formation of β-amyloidpolypeptide type of amyloid fibrils, representative samples taken from the ThT fluorescence assay measurements described above after attainment of the plateau (at about 192 hours, FIG. 2), in the absence or presence of indole-3-carbinol, were viewed using electron microscopy.

[7] = target: T3, Aβ 1-40 polypeptide; assay: Thioflavin T fluorescence assay of Aβ 1-40 fibrillization (Example 1); assay type: biochemical; conditions: 10 μM compound
Procedure: Fibrillization of Aβ 1-40 polypeptide was monitored using a Thioflavin T (ThT) dye binding assay. […] Fluorescence measurements, made after addition of the ThT solution to each sample at 37° C., were carried out using a Jobin Yvon FluoroMax-3 spectrometer (excitation 450 nm, 2.5 nm slit; emission 480 nm, 5 nm slit, integration time of 1 second). Background was subtracted from each sample. The level of amyloid formation was detected using the above described Thioflavin T (ThT) dye binding assay.

[8] = 50 μM compound, 14 days incubation
[9] = 50 μM compound, 5 μM Aβ1-40, endpoint of experiment, read-out: inhibition level at final equilibrium phase

T3 sequence (P05067 672-711 limits assumed): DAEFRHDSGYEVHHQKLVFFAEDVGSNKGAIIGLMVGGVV
T2 sequence (P05067 672-711 limits assumed): as above
T1 sequence (P05067 672-713 limits assumed): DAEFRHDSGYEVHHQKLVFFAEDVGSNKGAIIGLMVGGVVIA

| Compound | inhibition of β-amyloid polypeptide fibril formation [1] | amyloid fibril formation by AFM [2] | concentration dependence of inhibition of fibril formation [1] | pIC50 [1] | inhibitory effect on Aβ1-40 cytotoxicity [4] | fibril ultrastructure by TEM [3, 8] | effect on nucleation phase (lag phase) compared with control ([5]; 5 μM Aβ1-40) | effect on slope of growth curve (polymerization phase) ([5]; 5 μM Aβ1-40) | inhibition at 50 µM [5, 9] [%] | further results |
| --- | --- | --- | --- | --- | --- | --- | --- | --- | --- | --- |
| Oc1cc2ccccc2[nH]1 [2-hydroxyindole] | significantly reduced inhibition |  |  |  |  |  |  |  |  |  |
| Oc1cccc2[nH]ccc12 [4-hydroxyindole] | significantly inhibited | no fibrils | dose-dependent inhibition pattern | ~4.07 | most significant inhibitory effect |  |  |  |  | fibril ultrastructure by TEM ([3]; 5 μM or more of compound): no amyloid fibrils; fibril ultrastructure by TEM ([3]; 25 μM compound, 14 days incubation): devoid of fibrils and contained only a minor amount of small fibrils; protective effect, concentration dependence ([4]; 0.5 μM to 50 μM, 5 μM Aβ1-40, solution incubated 7 days): dose-dependent; minimum concentration required for significant inhibition ([4]; 5 μM Aβ1-40, solution incubated 7 days): 2.5 µM; elevation of viability rate of PC12 cells compared with control ([4]; 25 μM compound): about 25%; elevation of viability rate of PC12 cells compared with control ([4]; 50 μM compound): about 25%; toxic effect of Aβ1-40 ([4]; 50 μM compound, 5 μM Aβ1-40, solution incubated 7 days): completely blocked; effect on nucleation phase (lag phase) ([5]; 5 μM compound, 5 μM Aβ1-40): less significant; slope of growth curve (polymerization phase) ([5]; 5 μM compound, 5 μM Aβ1-40): the most sharp; inhibition at 5 µM ([5]; 5 μM compound, 5 μM Aβ1-40, endpoint of experiment, read-out: inhibition level at final equilibrium phase): ~60%; effect on nucleation phase (lag phase) ([5]; 25 μM compound, 5 μM Aβ1-40): significantly longer nucleation phase; inhibition level at final equilibrium phase ([5]; 25 μM compound, 5 μM Aβ1-40, endpoint of experiment): almost complete; effect on nucleation phase (lag phase) ([5]; 50 μM compound, 5 μM Aβ1-40): significantly longer nucleation phase; inhibition level at final equilibrium phase ([5]; 50 μM compound, 5 μM Aβ1-40, endpoint of experiment): almost complete; inhibition level at final equilibrium phase, comparison among compounds ([5]; all the tested concentrations): highest inhibition level |
| Oc1ccc2[nH]ccc2c1 [5-hydroxyindole] | significantly reduced inhibition |  |  |  |  |  |  |  |  |  |
| OCc1c[nH]c2ccccc12 [indole-3-carbinol] | significantly inhibited | small amounts of amyloid fibrils in the form of long wires | only at high concentrations and showed no dose-dependency | ~3.70 | No significant inhibition of cytotoxicity | smaller amounts of amyloid fibril aggregates | no effect on the nucleation phase | effect on the slope of the growth curve only at 50 μM | ~50 | fibril morphology by electron microscopy [6]: significantly shorter and less dense fiber type material; level of fluorescence at the plateau compared to non-inhibited Aβ 1-40 ([7]; 5 μM Aβ 1-40): about a third; time to attainment of fluorescence plateau ([7]; 5 μM Aβ 1-40, 37° C., without compound about 200 hours): about 300 hours; levels of ThT fluorescence following about 100 hours ([7]; 5 μM Aβ 1-40, remaining duration of assay): significantly lower levels of fluorescence; lag-time of fibrillization ([7]; 5 μM Aβ 1-40, control lag-phase about 100 hours): significantly extended |
| Oc1c[nH]c2ccccc12 [3-hydroxyindole] | significantly inhibited | small aggregates that interacted with the amyloid fibrils | dose-dependent inhibition pattern | ~4.00 | no anti-cyclotoxic effect | significant number of amorphous aggregates showing a congested form | no effect on the nucleation phase | dose-dependent effect | ~60 | improvement of PC12 survival rate compared with control ([4]; only at T=0 (solution added immediately), 5 μM Aβ1-40): about 25%; inhibition at 25 µM ([5]; 25 μM compound, 5 μM Aβ1-40, endpoint of experiment, read-out: inhibition level at final equilibrium phase): ~40% |
